Test results published in patent US11492385B2, “Long-acting co-agonists of the glucagon and GLP-1 receptors” (Merck Sharp & Dohme Corp., priority 2015, dated 2022).
Starred links: 1 amine or outer side, 2 acyl side, 3 side chain; linkers in the order of their positions; H or OH if unused. Non-standard residues stand in square brackets, D forms with d. Residues, ends and D or L forms follow the SMILES beside them. Groups on a side chain read outwards from the residue. *: point of attachment. Phe(4-CH2NH2) = NCc1ccc(C[C@H](N)C(=O)O)cc1; C18 diacid = O=C(O)CCCCCCCCCCCCCCCCC(=O)*; C16 diacid = O=C(O)CCCCCCCCCCCCCCC(=O)*; γGlu = O=C(O)[C@H](CCC(=O)[*:2])N[*:1]; X1 = O=C([C@H]1CCC[C@@H]1N[*:1])[*:2]; Met(O2) = CS(=O)(=O)CC[C@H](N)C(=O)O; αMeD = C[C@](N)(CC(=O)O)C(=O)O; AEEA = NCCOCCOCC(=O)O; Aib = CC(C)(N)C(=O)O

What was measured:
human GCGR = target: T1, human GCGR (Homo sapiens, UniProt P47871); experiment: cAMP activity assay, cells expressing human GCGR; format: cell-based; settings: for EC50: cAMP production, cells expressing human GCGR, assay buffer with or without 20% human serum (not stated which), read-out: GCGR EC50 human; for hGCGR/hGLP1R (hTone): ratio of human GCGR EC50 to human GLP1R EC50
T1 construct: expressed in transfected cells; kept under Blasticidin and Hygromycin selection
Procedure, shortened: (§1)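 cAMP production in human GLP1R- or GCGR-expressing cells was read by luminescence after overnight dark incubation at room temperature. Peptides were given as 10-point DMSO dilution series, with native GLP-1 and glucagon as references. Four-parameter logistic fitting gave EC50.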

human GLP1R = target: T2, human GLP1R (Homo sapiens, UniProt P43220); experiment: cAMP activity assay, cells expressing human GLP1R; format: cell-based; settings: cAMP production, assay buffer with or without 20% human serum (not stated which)
T2 construct: expressed in transfected cells; kept under Blasticidin and Hygromycin selection
Procedure, shortened: as §1

T2 sequence (P43220 24-463): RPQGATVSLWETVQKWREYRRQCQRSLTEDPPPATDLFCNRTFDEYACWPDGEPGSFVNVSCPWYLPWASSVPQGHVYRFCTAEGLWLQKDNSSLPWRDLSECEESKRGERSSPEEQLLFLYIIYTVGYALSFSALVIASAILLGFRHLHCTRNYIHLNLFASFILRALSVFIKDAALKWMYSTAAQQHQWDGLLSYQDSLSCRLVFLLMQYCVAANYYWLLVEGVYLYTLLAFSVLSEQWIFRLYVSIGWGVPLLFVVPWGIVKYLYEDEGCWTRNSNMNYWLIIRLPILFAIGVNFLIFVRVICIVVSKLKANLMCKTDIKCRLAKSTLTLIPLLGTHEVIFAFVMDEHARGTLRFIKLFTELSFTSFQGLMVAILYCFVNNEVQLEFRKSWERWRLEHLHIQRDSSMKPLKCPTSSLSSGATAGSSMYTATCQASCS
T1 sequence (P47871 26-477): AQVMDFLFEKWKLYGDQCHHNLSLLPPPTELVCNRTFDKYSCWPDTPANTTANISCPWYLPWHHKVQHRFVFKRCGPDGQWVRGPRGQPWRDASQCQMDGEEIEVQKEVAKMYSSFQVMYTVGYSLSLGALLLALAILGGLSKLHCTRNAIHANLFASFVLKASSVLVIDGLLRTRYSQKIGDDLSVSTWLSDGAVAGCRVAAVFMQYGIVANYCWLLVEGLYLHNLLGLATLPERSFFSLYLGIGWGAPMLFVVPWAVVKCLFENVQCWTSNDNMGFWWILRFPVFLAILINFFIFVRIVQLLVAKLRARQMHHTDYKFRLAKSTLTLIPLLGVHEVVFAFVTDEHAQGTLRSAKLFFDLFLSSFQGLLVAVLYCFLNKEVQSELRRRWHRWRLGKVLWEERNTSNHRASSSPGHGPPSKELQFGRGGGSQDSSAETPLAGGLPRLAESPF

EC50 (human GCGR)	hGCGR/hGLP1R (hTone) (human GCGR)	EC50 (human GLP1R)	SMILES
0.1 nM	1.66	0.06 nM	CC(C)C[C@H](NC(=O)[C@H](Cc1ccc(O)cc1)NC(=O)[C@H](CCCCN)NC(=O)[C@H](CO)NC(=O)[C@H](Cc1ccc(O)cc1)NC(=O)[C@H](CC(=O)O)NC(=O)[C@H](CO)NC(=O)[C@@H](NC(=O)[C@H](Cc1ccccc1)NC(=O)[C@@H](NC(=O)CNC(=O)[C@H](CCC(N)=O)NC(=O)C(C)(C)NC(=O)[C@@H](N)Cc1c[nH]cn1)[C@@H](C)O)[C@@H](C)O)C(=O)N[C@@H](CC(=O)O)C(=O)N[C@@H](C)C(=O)N[C@@H](CCCNC(=N)N)C(=O)N[C@@H](C)C(=O)N[C@@H](C)C(=O)N[C@@H](CCC(N)=O)C(=O)N[C@@H](CCCCNC(=O)COCCOCCNC(=O)COCCOCCNC(=O)CC[C@H](NC(=O)CCCCCCCCCCCCCCCCC(=O)O)C(=O)O)C(=O)N[C@@H](Cc1ccccc1)C(=O)N[C@H](C(=O)N[C@@H](CCC(N)=O)C(=O)N[C@@H](Cc1c[nH]c2ccccc12)C(=O)N[C@@H](CC(C)C)C(=O)N[C@@H](CCS(C)(=O)=O)C(=O)N[C@@H](CC(=O)O)C(=O)N[C@H](C(N)=O)[C@@H](C)O)C(C)C [compound 30] (H-H[Aib]QGTFTSDYSKYLDARAAQK([AEEA-AEEA-γGlu-C18 diacid])FVQWL[Met(O2)]DT-NH2)
0.26 nM	0.70	0.37 nM	CC(C)C[C@H](NC(=O)[C@H](Cc1ccc(O)cc1)NC(=O)[C@H](CCCCN)NC(=O)[C@H](CO)NC(=O)[C@H](Cc1ccc(O)cc1)NC(=O)[C@H](CC(=O)O)NC(=O)[C@H](CO)NC(=O)[C@@H](NC(=O)[C@H](Cc1ccccc1)NC(=O)[C@@H](NC(=O)CNC(=O)[C@H](CCC(N)=O)NC(=O)C(C)(C)NC(=O)[C@@H](N)Cc1c[nH]cn1)[C@@H](C)O)[C@@H](C)O)C(=O)N[C@@H](CC(=O)O)C(=O)N[C@@H](C)C(=O)N[C@@H](CCCNC(=N)N)C(=O)N[C@@H](C)C(=O)N[C@@H](C)C(=O)N[C@@H](Cc1ccc(CNC(=O)COCCOCCNC(=O)COCCOCCNC(=O)CC[C@H](NC(=O)CCCCCCCCCCCCCCCCC(=O)O)C(=O)O)cc1)C(=O)N[C@@H](CC(=O)O)C(=O)N[C@@H](Cc1ccccc1)C(=O)N[C@H](C(=O)N[C@@H](CCC(N)=O)C(=O)N[C@@H](Cc1c[nH]c2ccccc12)C(=O)N[C@@H](CC(C)C)C(=O)N[C@@H](CC(C)C)C(=O)N[C@@H](CC(=O)O)C(=O)N[C@H](C(N)=O)[C@@H](C)O)C(C)C [compound 31] (H-H[Aib]QGTFTSDYSKYLDARAA[Phe(4-CH2NH2)]([AEEA-AEEA-γGlu-C18 diacid])DFVQWLLDT-NH2)
0.07 nM	2.52	0.028 nM	CC(C)C[C@H](NC(=O)[C@H](Cc1ccc(O)cc1)NC(=O)[C@H](CCCCN)NC(=O)[C@H](CO)NC(=O)[C@H](Cc1ccc(O)cc1)NC(=O)[C@H](CC(=O)O)NC(=O)[C@H](CO)NC(=O)[C@@H](NC(=O)[C@H](Cc1ccccc1)NC(=O)[C@@H](NC(=O)CNC(=O)[C@H](CCC(N)=O)NC(=O)C(C)(C)NC(=O)[C@@H](N)Cc1c[nH]cn1)[C@@H](C)O)[C@@H](C)O)C(=O)N[C@@H](CC(=O)O)C(=O)N[C@@H](C)C(=O)N[C@@H](CCCNC(=N)N)C(=O)N[C@@H](C)C(=O)N[C@@H](C)C(=O)N[C@@H](CCC(N)=O)C(=O)N[C@@H](Cc1ccc(CNC(=O)COCCOCCNC(=O)COCCOCCNC(=O)CC[C@H](NC(=O)CCCCCCCCCCCCCCCCC(=O)O)C(=O)O)cc1)C(=O)N[C@@H](Cc1ccccc1)C(=O)N[C@H](C(=O)N[C@@H](CCC(N)=O)C(=O)N[C@@H](Cc1c[nH]c2ccccc12)C(=O)N[C@@H](CC(C)C)C(=O)N[C@@H](CC(C)C)C(=O)N[C@@H](CC(=O)O)C(=O)N[C@H](C(N)=O)[C@@H](C)O)C(C)C [compound 32] (H-H[Aib]QGTFTSDYSKYLDARAAQ[Phe(4-CH2NH2)]([AEEA-AEEA-γGlu-C18 diacid])FVQWLLDT-NH2; N-terminus assumed)
0.3 nM	4.00	0.07 nM	CC(C)C[C@H](NC(=O)[C@H](Cc1ccc(O)cc1)NC(=O)[C@H](CCCCN)NC(=O)[C@H](CO)NC(=O)[C@H](Cc1ccc(O)cc1)NC(=O)[C@H](CC(=O)O)NC(=O)[C@H](CO)NC(=O)[C@@H](NC(=O)[C@H](Cc1ccccc1)NC(=O)[C@@H](NC(=O)CNC(=O)[C@H](CCC(N)=O)NC(=O)C(C)(C)NC(=O)[C@@H](N)Cc1c[nH]cn1)[C@@H](C)O)[C@@H](C)O)C(=O)N[C@@H](CC(=O)O)C(=O)N[C@@H](C)C(=O)N[C@@H](CCCNC(=N)N)C(=O)N[C@@H](C)C(=O)N[C@@H](C)C(=O)N[C@@H](CCCCNC(=O)COCCOCCNC(=O)COCCOCCNC(=O)CC[C@H](NC(=O)CCCCCCCCCCCCCCCCC(=O)O)C(=O)O)C(=O)N[C@@H](CC(=O)O)C(=O)N[C@@H](Cc1ccccc1)C(=O)N[C@H](C(=O)N[C@@H](CCC(N)=O)C(=O)N[C@@H](Cc1c[nH]c2ccccc12)C(=O)N[C@@H](CC(C)C)C(=O)N[C@@H](CCS(C)(=O)=O)C(=O)N[C@@](C)(CC(=O)O)C(=O)N[C@H](C(N)=O)[C@@H](C)O)C(C)C [compound 33] (H-H[Aib]QGTFTSDYSKYLDARAAK([AEEA-AEEA-γGlu-C18 diacid])DFVQWL[Met(O2)][αMeD]T-NH2)
0.64 nM	0.53	1.2 nM	CC(C)C[C@H](NC(=O)[C@H](Cc1ccc(O)cc1)NC(=O)[C@H]1CCC[C@@H]1NC(=O)[C@H](CO)NC(=O)[C@H](Cc1ccc(O)cc1)NC(=O)[C@H](CC(=O)O)NC(=O)[C@H](CO)NC(=O)[C@@H](NC(=O)[C@H](Cc1ccccc1)NC(=O)[C@@H](NC(=O)CNC(=O)[C@H](CCC(N)=O)NC(=O)C(C)(C)NC(=O)[C@@H](N)Cc1c[nH]cn1)[C@@H](C)O)[C@@H](C)O)C(=O)N[C@@H](CC(=O)O)C(=O)NC(C)(C)C(=O)N[C@@H](CCCNC(=N)N)C(=O)N[C@@H](C)C(=O)N[C@@H](C)C(=O)N[C@@H](CCCCNC(=O)COCCOCCNC(=O)COCCOCCNC(=O)CC[C@H](NC(=O)CCCCCCCCCCCCCCCCC(=O)O)C(=O)O)C(=O)N[C@@H](CC(=O)O)C(=O)N[C@@H](Cc1ccccc1)C(=O)N[C@H](C(=O)N[C@H]1CCC[C@@H]1C(=O)N[C@@H](Cc1c[nH]c2ccccc12)C(=O)N[C@@H](CC(C)C)C(=O)N[C@@H](CCS(C)(=O)=O)C(=O)N[C@@H](CC(=O)O)C(=O)N[C@H](C(N)=O)[C@@H](C)O)C(C)C [compound 34] (H-H[Aib]QGTFTSDYS[X1]YLD[Aib]RAAK([AEEA-AEEA-γGlu-C18 diacid])DFV[X1]WL[Met(O2)]DT-NH2; N-terminus assumed)
0.23 nM	0.65	0.36 nM	CC(C)C[C@H](NC(=O)[C@H](Cc1ccc(O)cc1)NC(=O)[C@H]1CCC[C@@H]1NC(=O)[C@H](CO)NC(=O)[C@H](Cc1ccc(O)cc1)NC(=O)[C@H](CC(=O)O)NC(=O)[C@H](CO)NC(=O)[C@@H](NC(=O)[C@H](Cc1ccccc1)NC(=O)[C@@H](NC(=O)CNC(=O)[C@H](CCC(N)=O)NC(=O)C(C)(C)NC(=O)[C@@H](N)Cc1c[nH]cn1)[C@@H](C)O)[C@@H](C)O)C(=O)N[C@@H](CC(=O)O)C(=O)NC(C)(C)C(=O)N[C@@H](CCCNC(=N)N)C(=O)N[C@@H](C)C(=O)N[C@@H](C)C(=O)N[C@@H](CCCCNC(=O)COCCOCCNC(=O)COCCOCCNC(=O)CC[C@H](NC(=O)CCCCCCCCCCCCCCC(=O)O)C(=O)O)C(=O)N[C@@H](CC(=O)O)C(=O)N[C@@H](Cc1ccccc1)C(=O)N[C@H](C(=O)N[C@H]1CCC[C@@H]1C(=O)N[C@@H](Cc1c[nH]c2ccccc12)C(=O)N[C@@H](CC(C)C)C(=O)N[C@@H](CCS(C)(=O)=O)C(=O)N[C@@H](CC(=O)O)C(=O)N[C@H](C(N)=O)[C@@H](C)O)C(C)C [compound 36] (H-H[Aib]QGTFTSDYS[X1]YLD[Aib]RAAK([AEEA-AEEA-γGlu-C16 diacid])DFV[X1]WL[Met(O2)]DT-NH2; N-terminus assumed)
0.67 nM	6.24	0.11 nM	CC(C)C[C@H](NC(=O)[C@H](Cc1ccc(O)cc1)NC(=O)[C@H](CCCCN)NC(=O)[C@H](CO)NC(=O)[C@H](Cc1ccc(O)cc1)NC(=O)[C@](C)(CC(=O)O)NC(=O)[C@H](CO)NC(=O)[C@@H](NC(=O)[C@H](Cc1ccccc1)NC(=O)[C@@H](NC(=O)CNC(=O)[C@H](CCC(N)=O)NC(=O)C(C)(C)NC(=O)[C@@H](N)Cc1c[nH]cn1)[C@@H](C)O)[C@@H](C)O)C(=O)N[C@@H](CC(=O)O)C(=O)N[C@@H](C)C(=O)N[C@@H](CCCNC(=N)N)C(=O)N[C@@H](C)C(=O)N[C@@H](C)C(=O)N[C@@H](CCCCNC(=O)COCCOCCNC(=O)COCCOCCNC(=O)CC[C@H](NC(=O)CCCCCCCCCCCCCCC(=O)O)C(=O)O)C(=O)N[C@@H](CC(=O)O)C(=O)N[C@@H](Cc1ccccc1)C(=O)N[C@H](C(=O)N[C@@H](CCC(N)=O)C(=O)N[C@@H](Cc1c[nH]c2ccccc12)C(=O)N[C@@H](CC(C)C)C(=O)N[C@@H](CCS(C)(=O)=O)C(=O)N[C@@H](CC(=O)O)C(=O)N[C@H](C(N)=O)[C@@H](C)O)C(C)C [compound 37] (H-H[Aib]QGTFTS[αMeD]YSKYLDARAAK([AEEA-AEEA-γGlu-C16 diacid])DFVQWL[Met(O2)]DT-NH2)
